The results in this text go back to patent publication US5198458A, “Pyrrolidineamide derivatives of acylamino acid and pharmaceutical composition containing the same” (Suntory Limited, priority 1986, dated 1993).

Usually LD50 stands for the dose expected to kill half of the subjects tested. A higher LD50 goes with a less toxic substance.

In one data set the target is prolyl endopeptidase (Elizabethkingia meningoseptica, UniProt P27028). Format: biochemical. The settings on record: amount per test tube for 50% inhibition; pH 7.0, 35° C., 10 minutes. The protocol:
Measurement of anti-prolyl endopeptidase activity
The method of Yoshimoto and Tsuru [T. Yoshimoto and D. Tsuru, Agric. […] A mixture of 0.0025M Z-glycyl-proline-β-naphthylamide (0.25 ml), 0.1M phosphate buffer (pH, 7.0; 0.99 ml) and a solution of a particular anti-propyl endopeptidase compound (0.01 ml) was incubated in a test tube at 37° C. for 3 minutes. Thereafter, 0.1 ml of a solution of prolyl endopeptidase (0.2 U/ml) was added and the mixture was incubated at 35° C. for 10 minutes. After the reaction, 2.0 ml of Triton X-100 in 1M acetate buffer (pH, 4.0) was added to the reaction mixture so that the final concentration of the surfactant was 10%. The mixture was left at room temperature for 15 minutes and the absorbance (a) at 410 nm was measured.
A sample of a blind test was prepared by using the buffer instead of the anti-prolyl endopeptidase compound and its absorbance (b) was also measured. The percent inhibition of prolyl endopeptidase was calculated by the formula: […]

The test system of data set [1] is experimental amnesia caused in rats by scopolamine. As to the kind of experiment: Preventive effect against experimental amnesia caused in rats by scopolamine (passive avoidance learning, intraperitoneal administration). Format: in vivo, Wister male rats. The settings on record: for No. of avoidances during learning / Initial avoidance time: before scopolamine (3 mg/kg i.p.); for Initial avoidance time: learning; for Avoidance time After 24 hrs / No. of amnesic rats/No. of rats tested / Percentage amnesia: scopolamine 3 mg/kg i.p. after learning, 24 hrs. The method, then:
Measurement of preventive effect against experimental amnesia caused in rats by scopolamine (Intraperitoneal administration)
Several of the anti-prolyl endopeptidase compounds according to the present invention were checked for their ability to prevent the inhibition of long-term memory fixation by scopolamine. […] One hour after the administration, electric shocks were applied to the rats so that they would acquire passive avoidance learning. Immediately thereafter, scopolamine was administered intraperitoneally to each rat in an amount of 3 mg per kg of body weight.
The results of the test were assessed 24 hours after the administration of scopolamine. The number of amnesic rats and of sound rats was counted for each of the control group (rats to which the test compounds were not administered but to which only scopolamine and physiological saline were administered intraperitoneally) and the treated group (rats to which both the test compound and scopolamine were administered).

The nature of data set [2]: Acute toxicity test in mice. The settings on record: mouse, in vivo, ip; intraperitoneal, in DMSO, five mice per group. The protocol: Acute toxicity test in mice
Test samples were prepared by dissolving the respective compounds in DMSO, and a portion (0.1 ml) of the so conditioned test sample was administered intraperitoneally to each of the mice used. Each of the treated groups consisted of five mice.

Some results are limits rather than exact numbers.

Sequence of prolyl endopeptidase (P27028 21-705): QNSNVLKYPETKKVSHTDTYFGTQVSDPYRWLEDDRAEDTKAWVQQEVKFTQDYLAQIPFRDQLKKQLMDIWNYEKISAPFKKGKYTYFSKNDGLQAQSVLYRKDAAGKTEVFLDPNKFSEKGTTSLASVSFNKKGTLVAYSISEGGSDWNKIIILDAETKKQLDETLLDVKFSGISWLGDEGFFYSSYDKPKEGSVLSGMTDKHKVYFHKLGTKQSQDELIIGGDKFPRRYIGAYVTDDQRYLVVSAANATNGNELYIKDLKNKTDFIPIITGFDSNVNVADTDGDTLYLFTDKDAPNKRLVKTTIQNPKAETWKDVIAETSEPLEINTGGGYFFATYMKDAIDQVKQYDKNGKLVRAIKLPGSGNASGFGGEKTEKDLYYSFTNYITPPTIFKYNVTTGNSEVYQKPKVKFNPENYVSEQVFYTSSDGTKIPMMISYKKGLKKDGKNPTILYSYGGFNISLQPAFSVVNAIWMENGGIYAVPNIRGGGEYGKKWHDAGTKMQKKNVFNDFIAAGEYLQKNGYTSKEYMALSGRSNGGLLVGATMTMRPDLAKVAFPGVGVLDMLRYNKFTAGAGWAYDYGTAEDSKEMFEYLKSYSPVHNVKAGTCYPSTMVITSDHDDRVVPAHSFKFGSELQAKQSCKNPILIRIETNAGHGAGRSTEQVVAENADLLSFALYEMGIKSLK

As for `O=C([C@@H]1CCCN1C(=O)CCCOc1cccc(Cc2ccccc2)c1)N1CCCC1` [compound 33], at prolyl endopeptidase, the IC50 is on record as 0.0004 μg/test tube.

As for `CC(C)C[C@H](NC(=O)CCCOc1ccc(Cc2ccccc2)cc1)C(=O)N1CCCC1` [compound 12], at prolyl endopeptidase, the IC50 stood at 0.08 μg/test tube. For the compound `O=C([C@@H]1CCCN1C(=O)CCCc1ccccc1)N1CCCC1` [Compound No. 18, N-[N-(γ-phenyl)butyryl-L-prolyl]pyrrolidine], in data set [1] (5 mg/kg i.p.), the “No. of avoidances during learning” value is given as 1.8, the Initial avoidance time amounted to 2.8 s, the “Avoidance time After 24 hrs” value came out at 300.0 s and the “No. of amnesic rats/No. of rats tested” value is 0/10. Moreover, the Percentage amnesia in data set [1] (5 mg/kg i.p.) is recorded as 0. On prolyl endopeptidase, `O=C([C@@H]1CCCN1C(=O)CCCOc1ccccc1/C=C/c1ccccc1)N1CCCC1` [Compound No. 35, N-{N-[γ(o-(E)-stilbenyloxy)butyryl]-L-prolyl)pyrrolidine] returned an IC50 of 0.001 μg/test tube. The same measure, in the same setting: under `O=C([C@@H]1CCCN1C(=O)CCCOc1ccccc1Cc1ccccc1)N1CCCC1` [compound 34] stands 0.001 μg/test tube.

At prolyl endopeptidase, `O=C(c1ccccc1)c1ccc(OCCCC(=O)N2CCC[C@H]2C(=O)N2CCCC2)cc1` [compound 31] gave an IC50 of 0.004 μg/test tube. On to `O=C(c1ccccc1)c1ccccc1OCCCC(=O)N1CCC[C@H]1C(=O)N1CCCC1` [compound 32], for which, at prolyl endopeptidase, the IC50 came to 0.001 μg/test tube.

Compound `O=C([C@@H]1CCCN1C(=O)COc1ccc(Cl)cc1)N1CCCC1` [compound 20] yielded an IC50 against prolyl endopeptidase of 0.20 μg/test tube.

In the case of `O=C([C@@H]1CCCN1C(=O)CCCOc1ccccc1CCc1ccccc1)N1CCCC1` [compound 37], the LD50 in data set [2] amounted to 350 mg/kg. The compound further registered an IC50 against prolyl endopeptidase of 0.002 μg/test tube. On to `CC(C)[C@H](NC(=O)CCCOc1ccc(Cc2ccccc2)cc1)C(=O)N1CCCC1` [compound 13], for which the IC50 against prolyl endopeptidase is on record as 0.04 μg/test tube. `C=CCc1ccccc1OCCCC(=O)N1CCC[C@H]1C(=O)N1CCCC1` [compound 26] registered an LD50 in data set [2] of 390 mg/kg. For the same compound, the IC50 against prolyl endopeptidase is on record as 0.002 μg/test tube. As to `O=C([C@@H]1CCCN1C(=O)CCCOc1ccccc1O)N1CCCC1` [compound 22], the IC50 against prolyl endopeptidase was found to be 0.008 μg/test tube. The same measure, in the same setting: the result for `CCCCC/C=C\C/C=C\CCCCCCCC(=O)N1CCC[C@H]1C(=O)N1CCCC1` [compound 46] reads 0.015 μg/test tube; that for `O=C(/C=C/c1ccccc1OCCCC(=O)N1CCC[C@H]1C(=O)N1CCCC1)c1ccccc1` [compound 41], 0.001 μg/test tube.

With `O=C([C@@H]1CCCN1C(=O)CCCOc1ccccc1)N1CCCC1` [compound 21], the LD50 in data set [2] stood at 350 mg/kg. This compound also registered an IC50 against prolyl endopeptidase of 0.001 μg/test tube.

In turn, `CCC(=O)c1ccccc1OCCCC(=O)N1CCC[C@H]1C(=O)N1CCCC1` [compound 24] returned an IC50 at prolyl endopeptidase of 0.004 μg/test tube. In turn, `CC(C)C[C@H](NC(=O)CCCc1ccccc1)C(=O)N1CCCC1` [Compound No. 2] came in with an LD50 in data set [2] above 600 mg/kg. In data set [1] (25 mg/kg i.p.), the “No. of avoidances during learning” value was determined as 2.2, the Initial avoidance time is 2.7 s, the “Avoidance time After 24 hrs” value was 264.6 s and the “No. of amnesic rats/No. of rats tested” value was 2/10. For the same compound, the Percentage amnesia in data set [1] (25 mg/kg i.p.) turned out to be 20. The compound also showed an IC50 at prolyl endopeptidase of 0.15 μg/test tube. In turn, `O=C([C@@H]1CCCN1C(=O)CCCOc1ccc(/C=C/c2ccccc2)cc1)N1CCCC1` [compound 36] showed an IC50 against prolyl endopeptidase of 0.003 μg/test tube. The same measure, in the same setting: under `CCC(=O)c1ccc(OCCCC(=O)N2CCC[C@H]2C(=O)N2CCCC2)cc1` [compound 23] stands 0.003 μg/test tube; under `CC(C)C[C@H](NC(=O)CCCOc1ccccc1/C=C/c1ccccc1)C(=O)N1CCCC1` [compound 9], 0.03 μg/test tube. With `CCCCCCCC/C=C\CCCCCCCC(=O)N1CCC[C@H]1C(=O)N1CCCC1` [Compound No. 43, N-(N-oleoyl-L-prolyl)pyrrolidine], in data set [1] (1 mg/kg i.p.), the “No. of avoidances during learning” value was found to be 3.4, the Initial avoidance time turned out to be 1.9 s, the “Avoidance time After 24 hrs” value amounted to 240.8 s and the “No. of amnesic rats/No. of rats tested” value is on record as 2/10. In data set [1] (1 mg/kg i.p.), the Percentage amnesia was determined as 20. At prolyl endopeptidase, this compound registered an IC50 of 0.02 μg/test tube. On prolyl endopeptidase, `O=C([C@@H]1CCCN1C(=O)CCOc1ccccc1/C=C/c1ccccc1)N1CCCC1` [compound 39] showed an IC50 of 0.003 μg/test tube. In data set [2], `C=CCOc1ccccc1CCCC(=O)N1CCC[C@H]1C(=O)N1CCCC1` [compound 27] showed an LD50 of 390 mg/kg. Moreover, the IC50 on prolyl endopeptidase is given as 0.01 μg/test tube. As to `O=C([C@@H]1CCCN1C(=O)CCCOc1ccccc1OCc1ccccc1)N1CCCC1` [compound 30], the IC50 against prolyl endopeptidase amounted to 0.005 μg/test tube. `O=C(/C=C/c1ccccc1)c1ccccc1OCCCC(=O)N1CCC[C@H]1C(=O)N1CCCC1` [compound 42] registered an LD50 in data set [2] of 360 mg/kg. For the same compound, the IC50 against prolyl endopeptidase is recorded as 0.0008 μg/test tube. Regarding `CC(C)[C@H](NC(=O)CCCc1ccccc1)C(=O)N1CCCC1` [Compound No. 1, N-[N-(γ-phenyl)butyryl-L-valyl]pyrrolidine], in data set [1] (25 mg/kg i.p.), the “No. of avoidances during learning” value stood at 1.8, the Initial avoidance time is 2.4 s, the “Avoidance time After 24 hrs” value was found to be 243.0 s and the “No. of amnesic rats/No. of rats tested” value is given as 3/10. This compound also registered a Percentage amnesia in data set [1] (25 mg/kg i.p.) of 30. As to `CCCC[C@H](NC(=O)CCCc1ccccc1)C(=O)N1CCCC1` [compound 5], the IC50 at prolyl endopeptidase came to 0.15 μg/test tube.

Consider `CCCCCCCC/C=C\CCCCCCCC(=O)N[C@@H](CCCC)C(=O)N1CCCC1` [compound 16], for which, in data set [1] (20 mg/kg i.p.), the “No. of avoidances during learning” value was determined as 2.1, the Initial avoidance time is 2.2 s, the “Avoidance time After 24 hrs” value is 252.0 s and the “No. of amnesic rats/No. of rats tested” value is reported as 2/10. The compound further gave a Percentage amnesia in data set [1] (20 mg/kg i.p.) of 20. Further, the IC50 at prolyl endopeptidase is reported as 0.07 μg/test tube. Regarding `O=C([C@@H]1CCCN1C(=O)CCCCOc1ccccc1/C=C/c1ccccc1)N1CCCC1` [compound 40], the IC50 at prolyl endopeptidase was 0.002 μg/test tube. The same measure, in the same setting: the result for `CCCCCCCCCc1ccc(OCCCC(=O)N2CCC[C@H]2C(=O)N2CCCC2)cc1` [compound 25] reads 0.008 μg/test tube; that for `CC(C)[C@H](NC(=O)CCCOc1ccccc1/C=C/c1ccccc1)C(=O)N1CCCC1` [compound 10], 0.02 μg/test tube.

`O=C([C@@H]1CCCN1C(=O)CCCCOc1ccc(Oc2ccccc2)cc1)N1CCCC1` [compound 29] registered an IC50 against prolyl endopeptidase of 0.009 μg/test tube.
